Target: kappa opioid receptor (OPRK1) (Homo sapiens (Human), UniProt P41145)
Assay: OPRK1 antagonist assay (b-arrestin-2-TEV / b-lactamase reporter, EC80 U-50488 challenge)
Format: cell-based
Details: % inhibition to which the printed IC50 value refers, if other than 50%

Chain of kappa opioid receptor (OPRK1) (P41145 whole entry): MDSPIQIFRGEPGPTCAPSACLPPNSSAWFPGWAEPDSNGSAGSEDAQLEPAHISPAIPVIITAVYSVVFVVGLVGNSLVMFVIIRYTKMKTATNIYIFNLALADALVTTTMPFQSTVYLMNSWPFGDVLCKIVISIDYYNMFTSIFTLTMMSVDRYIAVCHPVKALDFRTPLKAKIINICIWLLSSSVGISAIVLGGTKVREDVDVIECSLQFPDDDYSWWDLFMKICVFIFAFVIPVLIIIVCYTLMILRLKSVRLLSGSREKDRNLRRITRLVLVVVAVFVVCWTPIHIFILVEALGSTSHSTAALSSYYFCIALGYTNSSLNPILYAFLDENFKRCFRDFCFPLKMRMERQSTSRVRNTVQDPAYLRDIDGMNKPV

% inhib if other than 50% [%]	Compound
80	COC(=O)c1cc(Br)cnc1N1CCC(NCCO)CC1 [compound 6]

Same assay, conditions: OPRK1 antagonist assay vs EC80 U-50488

Compound	IC50 [nM]
Cc1ccc2nc(N3CCC(N[C@H](C)C(C)C)CC3)c(-c3noc(C)n3)cc2c1 [compound 524]	57
CO[C@@H]1CN(c2nc3ccc(C)cc3cc2-c2nc(C)no2)CC[C@@H]1NC1CCCCC1 [compound 315]	4
Cc1ccc2nc(N3CCC(NC4CCOC4)CC3)c(-c3noc(C)n3)cc2c1 (stereo not drawn) [compound 432]	22
COC(=O)c1ccc(C(F)(F)F)nc1N1CCC(NC2CCCCC2)CC1 [C24]	> 10000
CCC(CC)NC1CCN(c2nc3ccccc3c(C)c2-c2noc(C)n2)CC1 [compound 449]	129
Cc1ccc2nc(NCCCNC3CCOCC3)c(-c3nc(C)no3)cc2c1 [C85]	> 10000
COC(=O)c1cc(Br)cnc1N1CCC(N(C(C)=O)C2CCCCC2)C(OC(C)=O)C1 (stereo not drawn) [C48]	> 10000
Cc1ccc2nc(N3CCC(NC(C)C)CC3)c(-c3nc(C)no3)cc2c1 [C73]	> 10000
CN(C)C(=O)c1cc(Br)cnc1N1CCC(NC2CCCCC2)CC1 [C19]	> 10000
COC(=O)c1cc(Br)cnc1N1CCC(N2CCOCC2)CC1 [C5]	> 10000
CCO/N=C/c1cc2cc(C)ccc2nc1N1CCC(NC2CCCCC2)CC1 [compound 460]	141
COC1CN(c2ncc(C)cc2-n2ccc(C)n2)CCC1NC1CCCCC1 (stereo not drawn) [compound 358]	9
COC(=O)c1cc(Br)cnc1N1CCC(N[C@@H]2CCCCC[C@@H]2O)CC1 [C9]	> 10000
Cc1ccc(-c2nc(C)no2)c(N2CCC(NC3CCCCC3)CC2)n1 [compound 387]	89
Cc1ccc2nc(N3CCC(NC4CCCOC4)CC3)c(-c3noc(C)n3)cc2c1 (stereo not drawn) [compound 419]	2
COC(=O)c1cc(Br)cnc1N1CCC(NCc2ccccc2OC)CC1 [C23]	> 10000
Cc1ccc2nc(N3CCC(NC4(C)CCOCC4)CC3)c(-c3noc(C)n3)cc2c1 [compound 417]	105
O=Cc1cc(Br)cnc1N1CCC(NC2CCCCC2)C(CO)C1 (stereo not drawn) [C46]	> 10000

Compound	IC50 [nM]
CCC(CC)NC1CCN(c2nc3ccc(C)cc3cc2-c2noc(C)n2)CC1 [compound 416]	4
Cc1cnc(N2CCC(NC3CCOCC3)CC2)c(-c2nc(C3CC3)no2)c1 [compound 396]	2260
CO[C@@H]1CN(c2nc(C)ccc2-c2ccc(C)nn2)CC[C@@H]1NC1CCCCC1 [compound 427]	4600
CO[C@H]1CN(c2nc3ccc(C)cc3cc2-c2nc(C3CC3)no2)CC[C@H]1NC1CCCCC1 [compound 337]	0.73
COC(=O)c1cc(Br)cnc1N1CCC(NCc2ccccc2O)CC1 [C22]	> 10000
Cc1ccc2nc(N3CCN(CC4CCCCC4)C(CO)C3)c(-c3nc(C)no3)cc2c1 (stereo not drawn) [C76]	> 10000
CO[C@H]1CN(c2ncc(C)cc2-n2ccc(C)n2)CC[C@H]1NC1CCCCC1 [compound 366]	19
CC(=O)c1cc(C2CC2)cnc1N1CC[C@@H](NC2CCCCC2)[C@H](O)C1 [C62]	> 10000
Cc1cc(-c2nc(C3CC3)no2)c(N2CCC(NC3CCCCC3)CC2)nn1 [compound 457]	24
CCC(CC)C(=O)NC1CCN(c2nc3ccc(C)cc3cc2-c2nc(C)no2)CC1 [C78]	> 10000
Cc1ccc2nc(N3CCC(NC4CCCC4)CC3)c(-c3nc(C)no3)cc2c1 [compound 369]	2
Cc1ccc2nc(N3CCC(NC4CCCCC4O)CC3)c(-c3ccc(C)nn3)cc2c1 (stereo not drawn) [compound 451]	94
Cc1cc(C)c2nc(N3CCC(NC4CCOCC4)CC3)c(-c3nc(C)no3)cc2c1 [compound 363]	10
Cc1ccc(-c2nc(C)no2)c(N2CCC(NC3CCCCC3)C(CO)C2)n1 (stereo not drawn) [compound 386]	31
Cc1cnc(N2CCC(NCC(C)C)CC2)c(-c2ccc(C)nn2)c1 [C93]	10200
Cc1ccc2nc(N3CCC(NC4CCOCC4)CC3)c(-c3ccc(C)nn3)cc2c1 [compound 441]	392
Cc1nc(-c2c(N3CCC(NCC(C)C)CC3)nc3ccccc3c2C)no1 [compound 448]	226
